One may read the Km as the substrate concentration at which the rate is half of its maximum.

Like-named read-outs stand apart in the source and are kept apart here.

Assay [1] deals with bile acid sulfate sulfatase. The experiment in a line: Activity of the present Enzyme on substrates (coupled β-hydroxysteroid dehydrogenase/NADH assay, absorbance at 340 nm). Format: biochemical, Pseudomonas testosteroni. The settings on record: for Relative activity (substrate specificity): lithocholic acid 3α-sulfate = 100. Here is the method: (§1) The physicochemical properties of the present Enzyme are further described below. The activity of the present Enzyme is measured as follows. That is, into a quartz cell are placed 0.1 ml of 2.5 mM aqueous solution of lithocholic acid 3α-sulfate (Sigma), 0.2 ml of 15 mM aqueous solution of β-NAD (Oriental Yeast), 1.0 ml of 0.1M tris-hydrochloric acid buffer solution (pH 8.0) and 1.55 ml of distilled water, and after equilibrating at 30° C., 0.05 ml of β-hydroxysteroid dehydrogenase (Sigma) solution (10 U/ml) and 0.1 ml of a solution of the present Enzyme are sequentially added thereto and the reaction is effected at 30° C., and the increase of the absorbance at 340 nm in the initial stage of the reaction is determined. Under these conditions, the enzyme activity producing 1 μmol of NADH per minute is defined as 1 unit.
(b) Substrate specificity: Acting on 3α-sulfates of nonconjugated bile acids, and 3α-sulfates each of glycine-conjugated and taurine-conjugated bile acids.

In assay [2] the test system is bile acid sulfate sulfatase. The assay can be described thus: Inhibition and activation of the present Enzyme by additives. Format: biochemical, Pseudomonas testosteroni. Here is the method: as §1
[3] abbreviates: additive 1 mM, no additive = 100.
[4] abbreviates: additive 2 mM, no additive = 100.
[5] abbreviates: effect of the substance on the present Enzyme.

With `C[C@H](CCC(=O)O)[C@H]1CC[C@H]2[C@@H]3[C@H](O)C[C@@H]4C[C@H](OS(=O)(=O)O)CC[C@]4(C)[C@H]3C[C@H](O)[C@]12C` [Cholic acid 3α-sulfate], the “Relative activity (substrate specificity)” value in assay [1] worked out at 238%.
Consider `[Cl][Hg][Cl]` [Mercuric chloride], for which the “Relative Activity” value in assay [2] (setting [3]) is recorded as 90%; in assay [2] (setting [4]), 71%.
As for `O=S(=O)([O-])[O-].[Zn+2]` [Zinc sulfate], in assay [2] (setting [4]), the “Relative Activity” value was found to be 95%.
Take `O=C(O)c1cc[c]([Hg][Cl])cc1` [p-Chloromercuribenzoate]: in assay [2] (additive 0.2 mM, no additive = 100), the “Relative Activity” value is 98%. In addition, in assay [2] (setting [5]), the “Inhibition and activation (in words)” value is on record as “Hardly inhibited”.
In the case of 4-Nitrocatechol sulfate, in assay [1], the “Relative activity (substrate specificity)” value worked out at 0%.
In the case of `C[C@H](CCC(=O)NCC(=O)O)[C@H]1CC[C@H]2[C@@H]3CC[C@@H]4C[C@H](OS(=O)(=O)O)CC[C@]4(C)[C@H]3CC[C@]12C` [Glycolithocholic acid 3α-sulfate], the “Relative activity (substrate specificity)” value in assay [1] was 11%.
Take `[Cl][Mn][Cl]` [Manganese chloride]: the “Relative Activity” value in assay [2] (setting [4]) stood at 111%. Also, in assay [2] (setting [5]), the “Inhibition and activation (in words)” value is “Activated”.
For `O=C(O)CI` [Monoiodoacetic acid], the “Inhibition and activation (in words)” value in assay [2] was “Hardly inhibited”. Further, in assay [2] (2000 µM), the “Relative Activity” value stood at 98%.
In the case of `O=C(O)CN(CCN(CC(=O)O)CC(=O)O)CC(=O)O` [EDTA], the “Relative Activity” value in assay [2] (setting [3]) is reported as 38%; in assay [2] (additive 5 mM, no additive = 100), 25%. For the same compound, in assay [2] (setting [5]), the “Inhibition and activation (in words)” value is “inhibited”.
Take `C[C@H](CCC(=O)O)[C@H]1CC[C@H]2[C@@H]3CC=C4C[C@@H](OS(=O)(=O)O)CC[C@]4(C)[C@H]3CC[C@]12C` [3β-Hydroxy-5-cholenic acid 3-sulfate]: in assay [1], the “Relative activity (substrate specificity)” value is on record as 0%.
As for `c1cnc2c(c1)ccc1cccnc12` [o-Phenanthroline], the “Relative Activity” value in assay [2] (setting [3]) is given as 37%. In addition, the “Inhibition and activation (in words)” value in assay [2] (setting [5]) is “inhibited”.
Turning to `C[C@H](CCC(=O)O)[C@H]1CC[C@H]2[C@@H]3CC[C@@H]4C[C@H](OS(=O)(=O)O)CC[C@]4(C)[C@H]3CC[C@]12C` [Lithocholic acid 3α-sulfate], in assay [1] (Km of the present Enzyme to the substrate), the Michaelis constant (Km) is 6 µM. The “Relative activity (substrate specificity)” value in assay [1] stood at 100%.
For the compound `C[C@H](CCC(=O)NCCS(=O)(=O)O)[C@H]1CC[C@H]2[C@@H]3CC[C@@H]4C[C@H](OS(=O)(=O)O)CC[C@]4(C)[C@H]3CC[C@]12C` [Taurolithocholic acid 3α-sulfate], the “Relative activity (substrate specificity)” value in assay [1] was determined as 2%.
With `c1ccc(-c2ccccn2)nc1` [α,α'-Dipyridyl], the “Relative Activity” value in assay [2] (setting [3]) came out at 97%.
Consider `[F-].[Na+]` [Sodium fluoride], for which, in assay [2] (setting [4]), the “Relative Activity” value is listed as 98%.
For `[N-]=[N+]=[N-]` [Sodium azide], the “Relative Activity” value in assay [2] (additive 10 mM, no additive = 100) amounted to 100%.
For `O=S(=O)([O-])[O-].[Cu+2]` [Copper sulfate], the “Relative Activity” value in assay [2] (setting [4]) worked out at 94%.
With `O=S(=O)([O-])[O-].[Mg+2]` [Magnesium sulfate], in assay [2] (setting [4]), the “Relative Activity” value was 101%.
As to `[Cl][Co][Cl]` [Cobalt chloride], the “Relative Activity” value in assay [2] (setting [4]) is given as 92%.
`[Cl][Cd][Cl]` [Cadmium chloride]: the “Relative Activity” value in assay [2] (setting [4]) is on record as 98%.

Source of the values: patent publication US5091305A, “Bile acid sulfate sulfatase, process for its preparation and method for assaying bile acid” (Marukin Shoyu Co., Ltd., priority 1988, dated 1992).
